According to patent US8691184B2, “Bcl-2/Bcl-xL inhibitors and therapeutic methods using the same” (The Regents of the University of Michigan, priority 2011, dated 2014):

Experiments:
[1] = tested on: H146 small-cell lung cancer cell line; experiment: Cell death assay (trypan blue), H146; assay type: cell-based; settings: for H146 cells undergoing cell death: 24-hr treatment, trypan blue
Description: Cell death assay was performed using a Trypan blue exclusion test of cell viability. One million cells were seeded in 6-well plates and incubated at 37° C. in an atmosphere of 95% air and 5% CO2 with or without compounds for the indicated time points. At the end of treatment, cells were collected and centrifuged at 1000 rpm for 5 minutes. The cell pellets were re-suspended in PBS and mixed with 0.4% Trypan blue (Invitrogen) at 1:1 dilution to determine cell viability using Olympus CKX41 microscope (Olympus, Center Valley, Pa.).

[2] = tested on: RS4;11 cell line; experiment: Cytochrome c and Smac release assay, RS4;11; assay type: cell-based; settings: RS4;11, 100 nM, within 30 minutes
Description: (§1) Four million of H146 or RS4;11 cells were treated with compounds at 37° C. in an atmosphere of 95% air and 5% CO2 for the indicated time points, washed with PBS and re-suspended in 100 μl of digitonin buffer (75 mM NaCl, 8 mM Na2HPO4, 1 mM NaH2PO4, 1 mM EDTA, 350 μg/ml digitonin, and 250 mM sucrose). Cytosolic fractions were separated from organelle membrane fraction by centrifugation at 13,000 rpm for 1 min. The cytosolic fractions were resolved on a 12% SDS-PAGE and probed using anti-cytochrome c antibody (BD Biosciences) and anti-Smac (Cell Signaling Technology, Danvers, Mass.) antibody.
(§2) Potent and bona fide Bcl-2/Bcl-xL inhibitors are predicted to induce apoptosis in cancer cells by binding to cellular Bcl-2 and Bcl-xL proteins, antagonizing their anti-apoptotic function and triggering rapid release of Smac and cytochrome c from mitochondria. Furthermore, the release of Smac and cytochrome c should take place before apoptosis. Accordingly, compound 150 was tested for its ability to induce cytochrome c and Smac release in the RS4;11 and H146 cell lines.

[3] = Toxicity (maximum tolerated dose) in SCID mice; assay type: in vivo; settings: for Weight loss at higher dose: SCID mice; for Weight loss or other signs of toxicity: female SCID mice, intravenously, daily, 5-times a week for 2 weeks
Description: These experiments established the maximum tolerated doses (MTD).

[4] = tested on: H146 cell line; experiment: Cytochrome c and Smac release assay, H146; assay type: cell-based; settings: H146, 300 nM, within 2 hr
Description: as §1, §2

[5] = tested on: ML-2 cell line; experiment: Western blot of PARP and caspase-3 cleavage, ML-2; assay type: cell-based; settings: as low as 100 nM, 8-hr treatment
Description: (§3) Cells were lysed with lysis buffer (PBS containing 1% NP40, 0.5% Na-deoxycholate, and 0.1% SDS) supplemented with protease inhibitors (α-complete, Roche). The protein extracts were quantified using a calorimetric assay (Bradford Reagent) (BioRad, Hercules, Calif.). Proteins were electrophoresed onto 4-20% SDS-PAGE gels (Invitrogen) and transferred onto polyvinylidene difluoride membranes (Bio-Rad). Following blocking in 5% milk, membranes were incubated with a specific primary antibody, washed, and incubated with horseradish peroxidase-linked secondary antibody (Pierce). The signals were visualized with the chemiluminescent horseradish peroxidase antibody detection reagent (Denville Scientific).

[6] = tested on: RS4;11 cells; experiment: Cell growth assay (WST-8), RS4;11; assay type: cell-based; settings: Homo sapiens, RS4-11, 96 h; Table 3, 4 days; read-out: Cell Growth Inhibition (IC50 ± SD) RS4; 11
Description: (§4) RS4;11 and H146 cells were seeded in 96-well cell culture plates at a density of 10,000 cells/well with serially diluted compounds and incubated at 37° C. in an atmosphere of 95% air and 5% CO2 for 4 days. Cell viability was determined using the WST-8 (2-(2-methoxy-4-nitrophenyl)-3-(4-nitrophenyl)-5-(2,4-disulfophenyl)-2H-tetrazolium, monosodium salt) based Cell Counting-8 Kit (Dojindo Molecular Technologies, Inc., Rockville, Md.) according to the manufacture's instruction. Briefly, WST-8 was added to each well at a final concentration of 10% (v/v), and then the plates were incubated at 37° C. for 1˜2 hours for color development. The absorbance was measured at 450 nm using a SPECTRAmax PLUS plate reader (Molecular Devices, Sunnyvale, Calif.). The half maximal inhibitory concentration (IC50) was calculated using the GraphPad Prism 5 software (GraphPad Software, La Jolla, Calif.).

[7] = target: Bcl-xL (Homo sapiens, UniProt Q07817); experiment: FP-based binding assay, Bcl-xL; settings: Table 2, FP-based assay
Bcl-xL, sequence (Q07817 whole entry): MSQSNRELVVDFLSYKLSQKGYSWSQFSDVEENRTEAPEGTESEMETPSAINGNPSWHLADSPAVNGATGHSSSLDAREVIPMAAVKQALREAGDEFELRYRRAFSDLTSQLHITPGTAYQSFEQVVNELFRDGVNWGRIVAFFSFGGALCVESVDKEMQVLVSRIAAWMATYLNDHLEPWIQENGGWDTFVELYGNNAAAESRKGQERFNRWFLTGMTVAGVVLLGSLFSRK

[8] = tested on: cellular Bcl-2/Bcl-xL; experiment: Competitive pull-down against Biotin-150 in ML-2 and H146 cell lysates; assay type: binding; settings: competitive experiment
[9] = tested on: H146 cell line; experiment: Western blot of PARP and caspase-3 cleavage, H146; assay type: cell-based; settings: as low as 100 nM, 8-hr treatment
Description: as §3

[10] = tested on: ML-2 acute myeloid leukemia (AML) cell line; experiment: Cell growth assay (WST-8), ML-2; assay type: cell-based; settings: Table 3; read-out: Cell Growth Inhibition (IC50 ± SD) ML-2
[11] = tested on: H146 cells; experiment: Cell growth assay (WST-8), H146; assay type: cell-based; settings: Homo sapiens, NCI-H146, 96 h; Table 3, 4 days; read-out: Cell Growth Inhibition (IC50 ± SD) H146
Description: as §4

[12] = tested on: RS4;11 cell line; experiment: Apoptosis assay (Annexin-V/PI flow cytometry), RS4;11; assay type: cell-based; settings: for RS4;11 cells undergoing apoptosis: within 4 hrs
Description: (§5) Apoptosis assay was performed using the Annexin-V-FLUOS Staining kit (Roche Diagnostics, Indianapolis, Ind.) according to the manufacturer's instruction. Briefly, cells were treated with compounds for the indicated time points, harvested and washed with PBS. Cells were stained with Annexin V-FITC and Propidium iodide for 15 minutes at room temperature in the dark before analyzed with a BD Biosciences FACSCaliburs (Becton Dickinson).

[13] = tested on: RS4;11 cell line; experiment: Western blot of PARP and caspase-3 cleavage, RS4;11; assay type: cell-based; settings: as low as 100 nM, 8-hr treatment
Description: as §3

[14] = tested on: ML-2 AML cell line; experiment: Apoptosis assay (Annexin-V/PI flow cytometry), ML-2; assay type: cell-based; settings: 300 nM, 24 hr
Description: as §5

[15] = target: Bcl-2 (Homo sapiens, UniProt P10415); experiment: FP-based binding assay, Bcl-2
Bcl-2, sequence (P10415 whole entry): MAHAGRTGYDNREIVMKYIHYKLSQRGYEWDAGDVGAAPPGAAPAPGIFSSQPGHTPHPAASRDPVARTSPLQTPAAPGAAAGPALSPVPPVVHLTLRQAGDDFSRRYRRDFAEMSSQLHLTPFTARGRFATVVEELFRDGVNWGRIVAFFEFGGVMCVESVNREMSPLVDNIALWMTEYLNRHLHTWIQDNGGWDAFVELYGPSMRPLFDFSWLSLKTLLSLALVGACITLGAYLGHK

[16] = tested on: H146 xenograft tumors; experiment: Apoptosis induction in H146 xenograft tumors; assay type: in vivo, SCID mice
Description: (§6) Compounds 150, 133, and 169 were tested for their toxicity in severe combined immunodeficiency (SCID) mice. SCID mice bearing xenograft tumors were treated with vehicle control, or a single dose of a compound, and tumors were removed at different time-points for western blot analysis of cleavage of PARP (CL-PARP) and caspase-3 (CL Cas-3). The ability of compounds 150 and 169 to induce apoptosis at their MTD in RS4;11 or H146 xenograft tumors in SCID mice was tested. In these experiments, RS4;11 or H146 tumors were allowed to grow to 200-300 mm^3 in female SCID mice. A single dose of the compound was administered to the animals and tumor tissues were analyzed for cleavage of PARP and caspase-3.

[17] = tested on: RS4;11 xenograft tumors; experiment: Apoptosis induction in RS4;11 xenograft tumors; assay type: in vivo, SCID mice; settings: RS4;11 model, single dose
Description: as §6

[18] = tested on: H146 xenograft tumors; experiment: Antitumor activity in the H146 xenograft tumor model; assay type: in vivo
Description: The antitumor activity of compound 169 in the H146 xenograft tumor model also was tested. […] At the end of the treatment (day 39), compound 169 inhibited the tumor growth by 100% (p<0.0001, t-test).

## Cc1c(C(=O)NCCCN2CCN(C)CC2)c(-c2cccc(N3CCN(c4ccc(NS(=O)(=O)c5ccc(N[C@H](CCN(C)C)CSc6ccccc6)c([N+](=O)[O-])c5)cc4)CC3)c2)c(-c2ccc(Cl)cc2)n1C [Compound 150]
[1]; 30 nM
  H146 cells undergoing cell death: 40%
[1]; 100 nM
  H146 cells undergoing cell death: > 70%
[1]; trypan blue assay
  Cell death induction in H146: effectively induced cell death
[2]
  Release of cytochrome c and Smac from mitochondria: robust release of cytochrome c and Smac
[3]; 50 mg/kg
  Weight loss at higher dose: caused weight loss
[3]; 25 mg/kg
  Weight loss or other signs of toxicity: no or minimal weight loss or other signs of toxicity
[4]
  Release of cytochrome c and Smac from mitochondria: strong release of cytochrome c and Smac
[5]
  Cleavage of PARP and caspase-3: highly effective in induction of cleavage of PARP and caspase-3
[6]
  IC50: 38 ± 24 nM
[7]; read-out: Bcl-xL IC50 ± SD
  IC50: 9 ± 2 nM
[7]; read-out: Bcl-xL Ki ± SD, no unit printed in this row
  Ki: 2.4 ± 0.5 nM
[8]
  Blocking of interaction of cellular Bcl-2/Bcl-xL with Biotin-150: blocked the interaction of cellular Bcl-2/Bcl-xL and Biotin-150 in a dose-dependent manner
[9]
  Cleavage of PARP and caspase-3: highly effective in induction of cleavage of PARP and caspase-3
[10]
  IC50: 185 ± 84 nM
[11]
  IC50: 102 ± 44 nM
[12]; 100 nM, 16 hr time-point
  RS4;11 tumor cells undergoing apoptosis: > 50%
[12]; 100 nM, Annexin-V/PI
  RS4;11 cells undergoing apoptosis: 30%
[12]; 300 nM, Annexin-V/PI
  RS4;11 cells undergoing apoptosis: 60%
[12]; time- and dose-dependent, Annexin-V/PI
  Apoptosis induction in RS4;11: highly effective in induction of apoptosis
[13]
  Cleavage of PARP and caspase-3: highly effective in induction of cleavage of PARP and caspase-3
[14]
  ML-2 cells undergoing apoptosis: about 50%
[15]
  Ki: < 1 nM
[15]; read-out: Bcl-2 IC50 ± SD, Table 2, FP-based assay
  IC50: 2 ± 0.6 nM

## Cc1c(C(=O)O)c(-c2cccc(N3CCN(c4ccc(NS(=O)(=O)c5ccc(N[C@H](CCN6CCC(O)CC6)CSc6ccccc6)c(S(=O)(=O)C(F)(F)F)c5)cc4)CC3)c2)c(-c2ccc(Cl)cc2)n1C.Cl [Compound 169, (R)-5-(4-chlorophenyl)-4-(3-(4-(4-(4-((4-(4-hydroxypiperidin-1-yl)-1-(phenylthio)butan-2-yl)amino)-3-((trifluoromethyl)sulfonyl)phenylsulfonamido)phenyl)piperazin-1-yl)phenyl)-1,2-dimethyl-1H-pyrrole-3-carboxylic acid]
[3]; 75 mg/kg
  Weight loss at higher dose: caused weight loss
[3]
  Weight loss or other signs of toxicity: no or minimal weight loss or other signs of toxicity
[16]; H146, single-dose 50 mg/kg IV, 3 hr and 6 hr-time points
  Cleavage of PARP and caspase-3 in xenograft tumor tissues: induced cleavage of PARP and caspase-3
[16]; H146 model, single dose
  Cleavage of PARP and caspase-3 in tumor tissues: strong effect in induction of cleavage of PARP and caspase-3
[17]
  Cleavage of PARP and caspase-3 in tumor tissues: strong effect in induction of cleavage of PARP and caspase-3
[18]; day 53, 2 weeks after the treatment was stopped, p=0.0001
  Tumor growth inhibition versus vehicle-treated tumors: 79%
[18]; during the entire experiment
  Other signs of toxicity: no other signs of toxicity
  Weight loss: < 3%
[18]; end of the treatment (day 39), p<0.0001
  Tumor growth inhibition: 100%
